We go through 33 compounds from patent US5747447A, “Stable polypeptide composition” (COR Therapeutics, priority 1995, dated 1998).

*1 amine or outer side, *2 acyl side, *3 side chain or, on linkers, in order; H or OH if unused. Where a SMILES comes first, the peptide text is derived from it. Bridges are numbered along the chain shown (N, C = ends). Where no end group is shown, it is not given here. [ ]: non-standard residue; d: D form. The star is where a group is joined. X1 = N=C(NCCCC[C@H](N[*:1])C(=O)[*:2])c1ccccc1; Phe(4-Cl) = N[C@@H](Cc1ccc(Cl)cc1)C(=O)O; X2 = CC(=N)NCCCC[C@H](N[*:1])C(=O)[*:2]; NMeR = CN[C@@H](CCCNC(=N)N)C(=O)O; hArg = N=C(N)NCCCC[C@H](N)C(=O)O; dPen = CC(C)(S)[C@@H](N)C(=O)O; NMeL = CN[C@@H](CC(C)C)C(=O)O; Pen = CC(C)(S)[C@H](N)C(=O)O; NMeS = CN[C@@H](CO)C(=O)O; Pip = O=C(O)[C@@H]1CCCCN1; NMeA = CN[C@@H](C)C(=O)O; Orn = NCCC[C@H](N)C(=O)O; Mpa = O=C(O)CCS; Sar = CNCC(=O)O; For = O=C*

The target in one experiment is ADP-induced human platelet aggregation (Homo sapiens, UniProt P05106+P08514). In words: standard aggregation inhibition assay (ADP-induced human platelet aggregation). The experiment is classed as cell-based. The following applies: ADP-induced human platelet aggregation; read-out: Appr, IC50. From the text:
2. Standard assays directly applied to platelet aggregation, such as those described by Gann, Z.-R., et al., J Biol Chem (1988) 263:19827-19832; Huang, T. F., et al., J Biol Chem (1987) 262:16157-16163; Biochemistry (1989) 28:661-666, cited above and incorporated herein by reference;
As for `CC1(C)SSCCC(=O)N[C@@H](CCCCN)C(=O)NCC(=O)N[C@@H](CC(=O)O)C(=O)N[C@@H](Cc2c[nH]c3ccccc23)C(=O)N2CCC[C@H]2C(=O)N[C@H]1C(N)=O` [Analog #52, Mpr-K-G-D-W-P-Pen.dagger.-NH2] ([Mpa]KGDWP[dPen]-NH2; disulfide 1-7), the IC50 turned out to be 5 µM. On to `CC1(C)SSCCC(=O)N[C@@H](CCCCN)C(=O)NCC(=O)N[C@@H](CC(=O)O)C(=O)N[C@@H](Cc2c[nH]c3ccccc23)C(=O)N2CCCC[C@H]2C(=O)N[C@@H]1C(N)=O` [Analog #59, Mpr-K-G-D-W-(Pip)-Pen-NH2] ([Mpa]KGDW[Pip][Pen]-NH2; disulfide 1-7), for which the IC50 worked out at 1 µM.

With `CC(=N)NCCCC[C@@H]1NC(=O)CCSSC[C@@H](C(N)=O)NC(=O)[C@@H]2CCCN2C(=O)[C@H](Cc2c[nH]c3ccccc23)NC(=O)[C@H](CC(=O)O)NC(=O)CNC1=O` [Analog #64, Mpr-(Acetimidyl-Lys)-G-D-W-P-C-NH2] ([Mpa][X2]GDWPC-NH2; disulfide 1-7), the 50% inhibitory concentration (IC50) was found to be 0.25 µM.

For “CKGDWPC-NH2 (cysteine pairing not given here) [Analog #10]”, the IC50 worked out at 5 µM. As for “CKGDIPC-NH2 (cysteine pairing not given here) [Analog #41]”, the IC50 is 100 µM.

With `NC(=O)[C@@H]1CSSC[C@H](N)C(=O)N[C@@H](CCCCNC=O)C(=O)NCC(=O)N[C@@H](CC(=O)O)C(=O)N[C@@H](Cc2c[nH]c3ccccc23)C(=O)N2CCC[C@H]2C(=O)N1` [Analog #40, C-K(Formyl)-G-D-W-P-C-NH2] (H-CK(For)GDWPC-NH2; disulfide 1-7), the IC50 was greater than 200 µM. The same measure, in the same setting: the value for CKGD[Phe(4-Cl)]P-NH2 [Analog #42] was 20 µM; that for `CC1(C)SSCCC(=O)N[C@@H](CCCCN)C(=O)NCC(=O)N[C@@H](CC(=O)O)C(=O)N[C@H](Cc2c[nH]c3ccccc23)C(=O)N2CCC[C@H]2C(=O)N[C@@H]1C(N)=O` [Analog #50, Mpr-K-G-D-W.dagger.-P-Pen-NH2] ([Mpa]KGD[dW]P[Pen]-NH2; disulfide 1-7) was greater than 200 µM. On the same count and under the same terms, the value for `CN1CC(=O)N[C@H](C(N)=O)CSSC[C@H](N)C(=O)N[C@@H](CCCCN)C(=O)NCC(=O)N[C@@H](CC(=O)O)C(=O)N[C@@H](Cc2c[nH]c3ccccc23)C1=O` [Analog #39, C-K-G-D-W-(Sar)-C-NH2] (H-CKGDW[Sar]C-NH2; disulfide 1-7) was 5 µM; that for `CC1(C)SSCCC(=O)N[C@@H](CCCCNC(=N)N)C(=O)NCC(=O)N[C@@H](CC(=O)O)C(=O)N[C@@H](Cc2c[nH]c3ccccc23)C(=O)N2CCC[C@H]2C(=O)N[C@@H]1C(N)=O` [Analog #63, Mpr-(Har)-G-D-W-P-Pen-NH2] ([Mpa][hArg]GDWP[Pen]-NH2; disulfide 1-7) was 0.1 µM.

As to “CKGEWPC-NH2 (cysteine pairing not given here) [Analog #35]”, the IC50 is greater than 300 µM. On to Mpr-Har-Sar-D-W-P-C-NH2 [Analog #68], for which the IC50 was 3 µM. Regarding `C[C@H]1NC(=O)[C@H](CCCCN)NC(=O)[C@@H](N)CSSC[C@@H](C(N)=O)NC(=O)[C@@H]2CCCN2C(=O)[C@H](Cc2c[nH]c3ccccc23)NC(=O)[C@H](CC(=O)O)NC1=O` [Analog #38, C-K-A.dagger.-D-W-P-C-NH2] (H-CK[dA]DWPC-NH2; disulfide 1-7), the IC50 was greater than 200 µM. The same measure, in the same setting: the value for Acetyl-C-K-G-D-C-NH2 [Analog #8] was 200 µM. Consider `NCCC[C@@H]1NC(=O)[C@@H](N)CSSC[C@@H](C(N)=O)NC(=O)[C@@H]2CCCN2C(=O)[C@H](Cc2c[nH]c3ccccc23)NC(=O)[C@H](CC(=O)O)NC(=O)CNC1=O` [Analog #36, C-Orn-G-D-W-P-C-NH2] (H-C[Orn]GDWPC-NH2; disulfide 1-7), for which the IC50 was 150 to 200 µM. The same measure, in the same setting: then `N=C(NCCCC[C@@H]1NC(=O)CCSSC[C@@H](C(N)=O)NC(=O)[C@@H]2CCCN2C(=O)[C@H](Cc2c[nH]c3ccccc23)NC(=O)[C@H](CC(=O)O)NC(=O)CNC1=O)c1ccccc1` [Analog #70, Mpr-(Phenylimidyl-Lys)-G-D-W-P-C-NH2] ([Mpa][X1]GDWPC-NH2; disulfide 1-7), with 0.5 µM. Turning to “CKGDFPC-NH2 (cysteine pairing not given here) [Analog #13]”, the IC50 came out at 20 µM.

Take `CN1CC(=O)N[C@@H](CC(=O)O)C(=O)N[C@@H](Cc2c[nH]c3ccccc23)C(=O)N2CCC[C@H]2C(=O)N[C@H](C(N)=O)CSSC[C@H](N)C(=O)N[C@@H](CCCCN)C1=O` [Analog #43, C-K-(Sar)-D-W-P-C-NH2] (H-CK[Sar]DWPC-NH2; disulfide 1-7): the half-maximal inhibitory concentration (IC50) worked out at 50 µM. “CKADWPC-NH2 (cysteine pairing not given here) [Analog #37]”: the IC50 was determined as 100 µM.

The experiment is the same for the next values; noted with them: PAI activity, Example 15; read-out: Appr.IC20.
As to `N=C(N)NCCCC[C@@H]1NC(=O)[C@H](CO)NC(=O)CCSSC[C@@H](C(N)=O)NC(=O)[C@@H]2CCCN2C(=O)[C@H](Cc2c[nH]c3ccccc23)NC(=O)[C@H](CC(=O)O)NC(=O)CNC1=O` [PAI 92, Mpr-S-Har-G-D-W-P-C-NH2] ([Mpa]S[hArg]GDWPC-NH2; disulfide 1-8), the concentration for an effect of 20% (IC20) came out at 0.24 µM. Take `C[C@H]1NC(=O)CCSSC[C@@H](C(N)=O)NC(=O)[C@@H]2CCCN2C(=O)[C@H](Cc2c[nH]c3ccccc23)NC(=O)[C@H](CC(=O)O)NC(=O)CNC(=O)[C@H](CCCCNC(=N)N)NC1=O` [PAI 86, Mpr-A.dagger.-Har-G-D-W-P-C-NH2] ([Mpa][dA][hArg]GDWPC-NH2; disulfide 1-8): the IC20 worked out at 1.15 µM. Regarding `CC(C)C[C@H]1C(=O)N[C@@H](CCCCNC(=N)N)C(=O)NCC(=O)N[C@@H](CC(=O)O)C(=O)N[C@@H](Cc2c[nH]c3ccccc23)C(=O)N2CCC[C@H]2C(=O)N[C@H](C(N)=O)CSSCCC(=O)N1C` [PAI 88, Mpr-(N-Me-Leu)-Har-G-D-W-P-C-NH2] ([Mpa][NMeL][hArg]GDWPC-NH2; disulfide 1-8), the IC20 amounted to 0.84 µM.

Consider `C[C@@H]1NC(=O)[C@@H]2CCCN2C(=O)[C@H](Cc2c[nH]c3ccccc23)NC(=O)[C@H](CC(=O)O)NC(=O)CNC(=O)[C@H](CCCCNC(=N)N)NC(=O)CCSSC[C@@H](C(N)=O)NC1=O` [PAI 93, Mpr-Har-G-D-W-P-A-C-NH2] ([Mpa][hArg]GDWPAC-NH2; disulfide 1-8), for which the IC20 came out at 3.33 µM. On the same count and under the same terms, then `CN1CC(=O)N[C@@H](CCCCNC(=N)N)C(=O)NCC(=O)N[C@@H](CC(=O)O)C(=O)N[C@@H](Cc2c[nH]c3ccccc23)C(=O)N2CCC[C@H]2C(=O)N[C@H](C(N)=O)CSSCCC1=O` [PAI 90, Mpr-Sar-Har-G-D-W-P-C-NH2] ([Mpa][Sar][hArg]GDWPC-NH2; disulfide 1-8), with 0.27 µM. On to `C[C@H]1C(=O)N[C@H](C(N)=O)CSSCCC(=O)N[C@@H](CCCCNC(=N)N)C(=O)NCC(=O)N[C@@H](CC(=O)O)C(=O)N[C@@H](Cc2c[nH]c3ccccc23)C(=O)N2CCC[C@H]2C(=O)N1C` [PAI 94, Mpr-Har-G-D-W-P-(N-Me-Ala)-C-NH2] ([Mpa][hArg]GDWP[NMeA]C-NH2; disulfide 1-8), for which the IC20 was 1.46 µM. For `C[C@@H]1NC(=O)CCSSC(C)(C)[C@@H](C(N)=O)NC(=O)[C@@H]2CCCN2C(=O)[C@H](Cc2c[nH]c3ccccc23)NC(=O)[C@H](CC(=O)O)NC(=O)CNC(=O)[C@H](CCCCNC(=N)N)NC1=O` [PAI 100, Mpr-A-(Har)-G-D-W-P-Pen-NH2] ([Mpa]A[hArg]GDWP[Pen]-NH2; disulfide 1-8), the IC20 worked out at 0.37 µM. In the case of `CN1C(=O)CCSSC[C@@H](C(N)=O)NC(=O)[C@@H]2CCCN2C(=O)[C@H](Cc2c[nH]c3ccccc23)NC(=O)[C@H](CC(=O)O)NC(=O)CNC(=O)[C@H](CCCCNC(=N)N)NC(=O)[C@@H]1CCCNC(=N)N` [PAI 84, Mpr-(N-Me-Arg)-Har-G-D-W-P-C-NH2] ([Mpa][NMeR][hArg]GDWPC-NH2; disulfide 1-8), the IC20 is 0.25 µM. As to `CC1(C)SSCCC(=O)N[C@@H](CC(=O)O)C(=O)N[C@@H](CCCCNC(=N)N)C(=O)NCC(=O)N[C@@H](CC(=O)O)C(=O)N[C@@H](Cc2c[nH]c3ccccc23)C(=O)N2CCC[C@H]2C(=O)N[C@@H]1C(N)=O` [PAI 102, Mpr-D-(Har)-G-D-W-P-Pen-NH2] ([Mpa]D[hArg]GDWP[Pen]-NH2; disulfide 1-8), the IC20 amounted to 4.04 µM. Take `N=C(N)NCCCC[C@@H]1NC(=O)CCSSC[C@@H](C(N)=O)NC(=O)CNC(=O)[C@@H]2CCCN2C(=O)[C@H](Cc2c[nH]c3ccccc23)NC(=O)[C@H](CC(=O)O)NC(=O)CNC1=O` [PAI 95, Mpr-Har-G-D-W-P-G-C-NH2] ([Mpa][hArg]GDWPGC-NH2; disulfide 1-8): the concentration for an effect of 20% (IC20) came to 8.66 µM. For the compound “Mpr-(N-Me-Ser)-Har-G-D-W-P-C-NH2 ([Mpa][NMeS][hArg]GDWPC-NH2; cysteine pairing not given here) [PAI 85]”, the IC20 was determined as 0.28 µM. For `C[C@H]1C(=O)N[C@@H](CCCCNC(=N)N)C(=O)NCC(=O)N[C@@H](CC(=O)O)C(=O)N[C@@H](Cc2c[nH]c3ccccc23)C(=O)N2CCC[C@H]2C(=O)N[C@H](C(N)=O)CSSCCC(=O)N1C` [PAI 89, Mpr-(N-Me-Ala)-Har-G-D-W-P-C-NH2] ([Mpa][NMeA][hArg]GDWPC-NH2; disulfide 1-8), the 20% effect concentration (IC20) came to 0.62 µM.

Turning to `N=C(N)NCCCC[C@@H]1NC(=O)CNC(=O)CCSSC[C@@H](C(N)=O)NC(=O)[C@@H]2CCCN2C(=O)[C@H](Cc2c[nH]c3ccccc23)NC(=O)[C@H](CC(=O)O)NC(=O)CNC1=O` [PAI 81, Mpr-G-Har-G-D-W-P-C-NH2] ([Mpa]G[hArg]GDWPC-NH2; disulfide 1-8), the IC20 was found to be 7.47 µM. As to `C[C@@H]1NC(=O)CCSSC(C)(C)[C@@H](C(N)=O)NC(=O)[C@@H]2CCCN2C(=O)[C@H](Cc2c[nH]c3ccccc23)NC(=O)[C@H](CC(=O)O)NC(=O)CNC(=O)[C@H](CCCCN)NC1=O` [PAI 101, Mpr-A-K-G-D-W-P-Pen-NH2] ([Mpa]AKGDWP[Pen]-NH2; disulfide 1-8), the IC20 turned out to be 4.91 µM.
